Results reported in US11384055B2 (BIOMARIN PHARMACEUTICAL INC., priority 2017, dated 2022).
pIC50: −log10 of the molar value.

target: T1, Human GO (Homo sapiens, UniProt Q9UJM8); test: GO enzymatic assay (coupled fluorescence/HRP assay, glycolate substrate); assay type: biochemical; conditions: Table 4; read-out: Range (range of IC50 values calculated from the enzymatic assays)
T1 construct: purchased Novus Biologicals NBP1-72412
T1 sequence (Q9UJM8 1-370): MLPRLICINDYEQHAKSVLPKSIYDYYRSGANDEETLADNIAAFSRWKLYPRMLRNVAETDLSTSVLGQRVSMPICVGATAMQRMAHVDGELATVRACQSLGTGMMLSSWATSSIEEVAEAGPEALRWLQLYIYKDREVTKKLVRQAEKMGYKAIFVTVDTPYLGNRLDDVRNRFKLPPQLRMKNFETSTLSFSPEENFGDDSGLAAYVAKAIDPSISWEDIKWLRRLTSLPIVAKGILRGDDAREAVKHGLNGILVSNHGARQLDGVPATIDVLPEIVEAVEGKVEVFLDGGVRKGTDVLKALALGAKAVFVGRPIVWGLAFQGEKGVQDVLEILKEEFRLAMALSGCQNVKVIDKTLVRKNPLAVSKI
Outline: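 Coupled HRP/fluorescence read-out of glycolate oxidation by human GO in 50 mM potassium phosphate buffer (pH 7). Inhibitors added across a concentration range.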

pIC50, > 7.00:
CN(C)CCCOc1ccc([C@H]2CC[C@H](Oc3nn[nH]c3C(=O)O)CC2)cc1 [Example 478, 4-(((trans)-4-(4-(3-(dimethylamino)propoxy)phenyl)cyclohexyl)oxy)-1H-1,2,3-triazole-5-carboxylic acid 2,2,2-trifluoroacetate]
CCC(O)(CC)Cn1nccc1-c1ccc([C@H]2CC[C@H](Oc3nn[nH]c3C(=O)O)CC2)cc1 [Example 479, 4-(((trans)-4-(4-(1-(2-ethyl-2-hydroxybutyl)-1H-pyrazol-5-yl)phenyl)cyclohexyl)oxy)-1H-1,2,3-triazole-5-carboxylic acid]
CC(C)(O)Cn1nccc1-c1ccc([C@H]2CC[C@H](Oc3nn[nH]c3C(=O)O)CC2)cc1 [Example 480, 4-(((trans)-4-(4-(1-(2-hydroxy-2-methylpropyl)-1H-pyrazol-5-yl)phenyl)cyclohexyl)oxy)-1H-1,2,3-triazole-5-carboxylic acid]
O=C(O)c1[nH]nnc1O[C@H]1CC[C@H](c2ccc(Cl)c(C3CCC3)c2)CC1 [Example 482, 4-(((trans)-4-(4-chloro-3-cyclobutylphenyl)cyclohexyl)oxy)-1H-1,2,3-triazole-5-carboxylic acid]
O=C(O)c1[nH]nnc1O[C@H]1CC[C@H](c2ccc(OC(F)(F)F)c(C3CCC3)c2)CC1 [Example 484, 4-(((trans)-4-(3-cyclobutyl-4-(trifluoromethoxy)phenyl)cyclohexyl)oxy)-1H-1,2,3-triazole-5-carboxylic acid]
COCCc1cc(-c2ccc([C@H]3CC[C@H](Oc4nn[nH]c4C(=O)O)CC3)cc2)[nH]n1 [Example 485, 4-(((trans)-4-(4-(3-(2-methoxyethyl)-1H-pyrazol-5-yl)phenyl)cyclohexyl)oxy)-1H-1,2,3-triazole-5-carboxylic acid 2,2,2-trifluoroacetate]
O=C(O)c1[nH]nnc1CO[C@H]1CC[C@H](c2cc(Cl)cc(Cl)c2)CC1 [Example 486, 4-((((trans)-4-(3,5-dichlorophenyl)cyclohexyl)oxy)methyl)-1H-1,2,3-triazole-5-carboxylic acid]
